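The compound was tested at five concentrations on cells cultured in 96-well plates, with a 48-hour exposure period. TGI: total growth inhibition.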
Experiments:
Assay in all cases: growth of human tumour cells (NCI), 48 h
SF-539 CNS = test system: SF-539 CNS
UACC-62 melanoma = test system: UACC-62 melanoma
CAKI-1 renal = test system: CAKI-1 renal
UACC-257 melanoma = test system: UACC-257 melanoma
NCI-H23 lung = test system: NCI-H23 lung
HT29 colon = test system: HT29 colon
SN12C renal = test system: SN12C renal
T-47D breast = test system: T-47D breast
MOLT-4 leukemia = test system: MOLT-4 leukemia
M14 melanoma = test system: M14 melanoma
NCI-H460 lung = test system: NCI-H460 lung
MALME-3M melanoma = test system: MALME-3M melanoma
HOP-92 NSCLC = test system: HOP-92 NSCLC
OVCAR-4 ovarian = test system: OVCAR-4 ovarian

| Structure (SMILES) | TGI (SF-539 CNS) [µM] | TGI (UACC-62 melanoma) [µM] | TGI (CAKI-1 renal) [µM] | TGI (UACC-257 melanoma) [µM] | TGI (NCI-H23 lung) [µM] | TGI (HT29 colon) [µM] | TGI (SN12C renal) [µM] | TGI (T-47D breast) [µM] | TGI (MOLT-4 leukemia) [µM] | TGI (M14 melanoma) [µM] | TGI (NCI-H460 lung) [µM] | TGI (MALME-3M melanoma) [µM] | TGI (HOP-92 NSCLC) [µM] | TGI (OVCAR-4 ovarian) [µM] |
| --- | --- | --- | --- | --- | --- | --- | --- | --- | --- | --- | --- | --- | --- | --- |
| CCOC(=O)c1c(NC(=O)c2ccc(Br)cc2)sc2c1CCCC2 | > 100 | > 100 | > 100 | > 100 | > 100 | > 100 | > 100 | > 100 | > 100 | > 100 | 20 |  |  |  |
| Cn1c(=O)sc2cc(C(=S)N3CCN(c4ccccc4)CC3)ccc21 | 61.4 | > 100 | > 100 | > 100 | > 100 | > 100 | > 100 |  | > 100 | > 100 | > 100 | > 100 |  |  |
| COC(=O)CCC1(O)C=CC(=O)C=C1 | 76.4 | 58 | 33.1 | 66.3 | 97.4 | > 100 | > 100 |  | > 100 | > 100 | > 100 | 50 | > 100 | > 100 |
| CC(=O)C1C(=O)C(=O)N(c2ccc(Br)cc2)C1=O (centres undefined) | > 100 | > 100 | > 100 | > 100 | > 100 | > 100 | > 100 |  | > 100 | > 100 | > 100 |  | > 100 | > 100 |
| CN(C)Cc1[nH]c2ccccc2c1C(=O)c1ccccc1 | > 100 | > 100 | > 100 | > 100 | > 100 | > 100 |  |  | > 100 | > 100 | > 100 | > 100 | > 100 | > 100 |
| COc1ccc(C2C(Cl)C(=O)N2NC(=O)c2ccccc2O)cc1OC (centres undefined) | > 100 | > 100 |  | > 100 | > 100 | > 100 | > 100 |  | > 100 | > 100 | > 100 | > 100 |  | > 100 |
| CC(C)(C)N=c1n(C(C)(C)C)oc(=O)n1-c1ccccc1 | > 50 | > 50 | > 50 | > 50 | > 50 | > 50 | > 50 |  | > 50 | > 50 | > 50 | > 50 | > 50 | > 50 |
| CN(C)C(=O)Oc1ccc(C(=S)Nc2ccccc2)cc1Br | > 100 | 74.4 | > 100 | 74 | 57.3 | 65.1 |  | 80.9 | 38.1 | 39.8 | > 100 | > 100 |  | > 100 |
| N#Cc1c(N2CCOCC2)ncn(-c2ccc(Cl)cc2)c1=O | > 100 | > 100 | > 100 | > 100 | > 100 |  | > 100 | > 100 | > 100 | > 100 | > 100 |  | > 100 |  |
| c1cc(C[S+]2CCCC2)oc1C[S+]1CCCC1 | > 100 | > 100 | > 100 | > 100 | > 100 | > 100 | > 100 | > 100 | > 100 | > 100 | > 100 | > 100 |  | > 100 |

From PubChem BioAssay (NCI)
